Here are results for 4 molecules from patent publication US20250019445A1, “P-SELECTIN INHIBITION FOR TREATMENT OF CANCER” (Ramot at Tel-Aviv University Ltd., priority 2022, published 2025).

Data set [1] relates to P-selectin-, E-selectin-, and L-selectin-dependent adhesion. The settings on record: in humans in vitro; cited from earlier work.
The conditions of data set [2]: different animal models; wording wraps from r29 ("anti-") to r30; cited from earlier work.
Data set [3] concerns Human MDA-BM-231 3D spheroids. As to the kind of experiment: Breast cancer 3D spheroid invasion. The settings on record: co-cultured with brain microenvironment cells; FIG. 7B. It counts as cell-based.
The subject of the next data set is A549 spheroids. The data set can be described thus: Lung cancer spheroid growth and invasion. It counts as cell-based, human.
The conditions of data set [4]: patients, administered systemically; cited from earlier work.

As for `O=C(O)Cc1cccc(-c2cc(CCCCCCc3ccc(O[C@H]4O[C@H](CO)[C@@H](O)[C@H](O)[C@@H]4O)c(-c4cccc(CC(=O)O)c4)c3)ccc2O[C@H]2O[C@H](CO)[C@@H](O)[C@H](O)[C@@H]2O)c1` [Bimosiamose], the “inhibition of selectin-dependent adhesion” value in data set [1] is “been shown to inhibit P-selectin-, E-selectin-, and L-selectin-”. The anti-inflammatory effects result in data set [2] is given as “inflammatory effects in different animal models”.

With `COc1ccc(C2CC(c3c(O)cc(C)oc3=O)=NCCS2)c(OC)c1` (stereo not shown) [SELPi, 3-[7-(2,4-Dimethoxyphenyl)-2,3,6,7-tetrahydro-1,4-thiazepin-5-yl]-4-hydroxy-6-methyl-2H-pyran-2-one], the spheroid invasion result in data set [3] is “reduced invasion”. Moreover, the “spheroid growth and invasion in Matrigel” value with A549 spheroids (FIG. 8D) was “reduced A549 spheroid growth and invasion in Matrigel, in a dose-dependent manner”. Further, in the data set on A549 spheroids (in the presence of human microglia, FIG. 8C), the spheroid growth entry is given as “inhibits A549 spheroid growth”. Regarding “inclacumab: monoclonal antibody directed towards P-selectin”, in data set [4], the tolerability result is “well tolerated”.

B1: crizanlizumab: Humanized monoclonal anti-P-selectin antibody. (antibody, chains of the INN, looked up, V domains shown)
VH: QVQLVQSGAEVKKPGASVKVSCKVSGYTFTSYDINWVRQAPGKGLEWMGWIYPGDGSIKYNEKFKGRVTMTVDKSTDTAYMELSSLRSEDTAVYYCARRGEYGNYEGAMDYWGQGTLVTVSS
VL: DIQMTQSPSSLSASVGDRVTITCKASQSVDYDGHSYMNWYQQKPGKAPKLLIYAASNLESGVPSRFSGSGSGTDFTLTISSLQPEDFATYYCQQSDENPLTFGGGTKVEIK
Regarding B1, in data set [4], the tolerability entry is reported as “well tolerated”.
